By IC50 is commonly meant the midpoint of a concentration-inhibition curve.

The source of these data is publication PMC9266561, “1,3-Benzodioxole Derivatives Improve the Anti-Tumor Efficiency of Arsenicals” (International Journal of Molecular Sciences, 2022).

The subject of one series is cancer cells. The series is described as follows: MTT assay, cancer cell lines taken together. The format is cell-based. The procedure: The bioactivity of all the synthetic compounds was evaluated by a MTT assay (Table 1, Tables S1 and S2) against two leukemia cell lines, Molm-13 and NB4; two solid tumor cell lines, HeLa (human cervix cell line) and 4T1 (breast cancer cell line); and two normal cell lines, COS-7 (African green monkey kidney cell line) and rat PBMC (peripheral blood mononuclear cell line).
Cells were cultured in 96-well plates overnight, followed by adding 80 μL of a related medium containing compounds of different concentrations and dissolved in DMSO for 24 h or 48 h. Then, 40 μL of MTT (2.5 mg/mL) was added and the cells were incubated for another 4 h. The cells were then dissolved in 100 μL of 10% SDS solution or DMSO to release and dissolve the purple MTT products, followed by absorbance detection (BioTek, Winooski, VT, USA).
In general terms: Tetrazolium dyes change colour on reduction, which living cells bring about.

Another series deals with Molm-13. As to the kind of experiment: cells. The class given is cell-based.
The test system of the next series is NB4. As to the kind of experiment: cells. The format is cell-based.
Another series has as its system 4T1. As to the kind of experiment: cells. The format is cell-based.
For a further series, the system named is HeLa. The series is described as follows: cells. The class given is cell-based, human.
The test system of another series is COS-7. The series is described as follows: cells. The class given is cell-based, African green monkey.
The next series has as its system PBMC. The series is described as follows: cells. The class given is cell-based, rat.
A further series relates to TrxR. As to the kind of experiment: Cellular TrxR activity of 4T1 cells. The class given is cell-based. The note with it: 12 h incubation.
Series [1] concerns 4T1 cells with TrxR knocked down. The series is described as follows: MTT assay of 4T1 cells with TrxR siRNA knock-down. The class given is cell-based.
The subject of series [2] is Trx system (TrxR1, Trx1, TrxR2, Trx2). As to the kind of experiment: Transcription of Trx system genes in 4T1 cells. The format is cell-based. Particulars: 24 h, 1IC50 and 1.5IC50. The source says: See the methods in previous work.
For the next series, the system named is 4T1 cells. The series is described as follows: ROS level by DCFH-DA in 4T1 cells. The class given is cell-based. The procedure: The 4T1 cells treated with the MAZ2 of 0.8 and 1.6 µM were seeded in 6-well plates for 3, 6, 9, 12, and 24 h. Then, the medium was removed and fresh medium with DCFH-DA (0.2 µM) was added, followed by 30 min of incubation. Next, cells were collected and washed twice with PBS. Data were collected by a C6 flow cytometer (BD Biosciences, Franklin Lakes, New Jersey, USA).
The 4T1 cells treated with the MAZ2 of 0.8 and 1.6 µM were cultured in 1 cm dishes specially designed for confocal tests. Nine hours later, DCFH-DA was added for confocal tests.

The next series deals with GSH. As to the kind of experiment: GSH content. The format is cell-based.
Another series relates to Molm-13 and 4T1 cells. As to the kind of experiment: MDA content (lipid peroxidation). The format is cell-based. Particulars: 6 and 12 h. The procedure:
The Molm-13 and 4T1 cells were cultured in 6-well plates for 6 and 12 h, followed by an MDA test according to the manufacturer’s instructions.

A further series has as its system Molm-13 cells. As to the kind of experiment: Apoptosis assay by flow cytometry. Particulars: 0.2, 0.3 and 0.4 µM, 24 h. The format is cell-based. The procedure: The Molm-13 cells were cultured with 0.2, 0.3, and 0.4 µM MAZ2 for 24 h; then, the cells were collected and stained using annixin V-FITC and PE for 30 min. The separation lines were determined by single staining.
A general note: Flow cytometry measures light scatter and fluorescence of single cells or particles in a stream.

In the next series the test system is 4T1 tumors. As to the kind of experiment: 4T1 tumor syngeneic model in Balb/C mice. The format is in vivo. The note with it: for average tumor weight reduced by: two administrations, day 26. As to the method:
To confirm the bioactivity of MAZ2 in vivo, the tumor growth inhibition in 4T1 tumor syngeneic models in Balb/C mice was investigated (Figure 4A). When tumors grew to about 100 mm^3, the mice were divided into three groups; namely, the control, 1 mg/kg of MAZ2, and 1.5 mg/kg of MAZ2. Either a vehicle or the MAZ2 was injected intraperitoneally once a week. […] Therefore, the experiments were terminated at day 26 after two administrations.
(§1) The mice (BALB/c, female, 5 weeks), purchased from Hubei Provincial Laboratory Animal Public Service Center, were injected with 0.1 mL of 4T1 cells (1 × 10^6/mL) in the right haunch. After the tumor grew to approximately 100 mm^3, the mice were randomly divided into three groups: control (PBS:DMSO = 8:2), 1 mg/kg, and 1.5 mg/kg. The MAZ2 was administrated once a week (i.p.) for two doses. The 1.5 mg/kg group had six mice, and the tumors of two mice disappeared after 8 days; that is, after one administration, the two tumors were almost eliminated. The body weight and tumor volume were measured every two days.
(§2) Fresh tumors and organs were minced quickly in an ice bath and homogenized in a pre-cooled Dounce Tissue Grinder (WHEATON). The homogenate was dissolved by RIPA with 0.1% PMSF. The protein concentration was determined by a BCA Protein Assay Kit (Beyotime, Shanghai, China). A total of 20–40 μg of proteins were separated by 8–12% SDS-PAGE according to the molecular weight of certain proteins, followed by being transferred onto the polyvinylidene difluoride membrane. Then, the membrane was blocked with 5% fat-free milk for 2 h, followed by incubation with primary antibodies and HRP-conjugated secondary antibodies. Then, the images were snapped by QuickChemi5100.

Series [3] in a line: Side effects in 4T1 tumor-bearing mice. The format is in vivo. The procedure:
as §1
Blood samples for the blood cell content tests were collected from the eye socket veins of the mice.
as §2
The 5 organs were formalin-fixed for 24 h immediately after the mice were sacrificed, and decalcified for 3.5 h, paraffin-embedded, cut, dewaxed, and hydrated. Some samples were stained with H&E. The pictures in the results were magnified by 400× and the scale bar was 50 µm.

The conditions of series [4]: rat, in vivo.
Series [5] in a line: Arsenic content of viscera and tumor by ICP-MS. Particulars: mouse, in vivo.

SMILES strings stand for the structures. Read-outs that look alike come from different tables or passages of the source.

Turning to `O=C(O)c1ccc2c(c1)OCO2` [1,3-benzodioxole derivative, piperonylic acid], the “anti-proliferation activity to cancer cells” value in the series on cancer cells (even at a high dosage, Figure S2) is on record as “no anti-proliferation activity”.
Regarding `COc1ccc(C(=O)Nc2ccc([As]3SCCCS3)cc2)cc1` [MAZ2], the IC50 with Molm-13 (read-out: IC50 Molm 24 h) is 200 nM; in the series with Molm-13 (read-out: IC50 Molm 48 h) it was 100 nM; in the series with NB4 (read-out: IC50 NB4 24 h), 400 nM; in the series on NB4 (read-out: IC50 NB4 48 h), 300 nM; with 4T1 (read-out: IC50 4T1 24 h), 800 nM; in the series on 4T1 (read-out: IC50 4T1 48 h) it was 400 nM. Also, the half-inhibitory concentration (IC50) with HeLa (read-out: IC50 HeLa 24 h) was 400 nM; in the series on HeLa (read-out: IC50 HeLa 48 h), 300 nM; in the series on COS-7 (read-out: IC50 COS-7 24 h), 5200 nM; in the series on COS-7 (read-out: IC50 COS-7 48 h), 3300 nM; in the series on PBMC (read-out: IC50 PBMC 24 h) it was 7600 nM; in the series on PBMC (read-out: IC50 PBMC 48 h), 6900 nM. The same molecule returned a concentration for half-maximal inhibition (IC50) with cancer cells (all cancer cell lines) of less than 1000 nM. For the same molecule, the “TrxR activity of the 4T1 cells” value in the series on TrxR is given as “sharply reduced activity”. Moreover, the “change of IC50 value after TrxR was knocked down” value in series [1] came out at 5.5 fold. Besides, the “transcription of the Trx system” value in series [2] is given as “decreased the transcription of the Trx system”. The “incubation time at which the ROS peak was reached” value with 4T1 cells was 9 h. Besides, the ROS level entry with 4T1 cells (0.8 and 1.6 µM) is recorded as “rose sharply in a dosage-dependent manner”. For the same molecule, the “influence on the GSH content” value with GSH is given as “very little influence”. Besides, the MDA content entry in the series on Molm-13 and 4T1 cells was “increased acutely and dosage-dependently”. In the series with Molm-13 cells, the apoptosis induction result is “induced apoptosis in a dosage-dependent manner”. The figures for the “average tumor weight reduced by” value in the series with 4T1 tumors (1 mg/kg i.p. once a week) and in the series with 4T1 tumors (1.5 mg/kg i.p. once a week) were 30% and 15%, respectively. Moreover, the “tumor growth (tumor volume)” value with 4T1 tumors (1 mg/kg or 1.5 mg/kg i.p. once a week) is “completely reverse the growth of tumors and gradually eliminate tumors”. Besides, the tumors eliminated entry with 4T1 tumors (1.5 mg/kg i.p. once a week, after two weeks) is listed as “two tumors in the mice belonging to the 1.5 mg/kg MAZ2 group were eliminated”. Further, in the series with 4T1 tumors (tumors of treated mice), the “TrxR and Trx content of tumors by western blot” value was “reduced the TrxR1 content slightly and reduced the Trx1 content by a large amount”. In series [3] (1 and 1.5 mg/kg i.p. once a week), the “body weight of the mice” value is reported as “no obvious impact on the body weight”. Moreover, the “blood cell counts (WBC, NEUT, LYMPH, MONO)” value in [3] (tumor-bearing mice versus normal mice) is “lowered the counts of blood cells and reversed abnormalities in the hematological system”. Also, the “H&E staining of heart, liver, spleen, lungs, kidneys” value in series [3] (two MAZ2-administered groups) is recorded as “showed healthy organs”. Besides, the “TrxR content of the liver and spleen” value in [3] (western blot) was “no changes”. In addition, in series [4], the “blood arsenic content over time” value is “decreased slowly and remained at high levels even after 2 days”. In addition, in series [5], the “arsenic content of tumor and viscera” value is “gathered in the tumor instead of the viscera”.
